# Measurements as given in US20120041036A1, “SUBSTITUTED ACYLGUANIDINE DERIVATIVES (AS AMENDED)” (priority 2009, published 2012).
# Counter-ions that a name gives are not always drawn.
# Target: T1, human 5-HT5A receptor (Homo sapiens, UniProt P47898)
# T1 construct: expressed in transfected cells; membrane preparation
# Experiment: Test on a human 5-HT5A receptor binding inhibition ([3H]5-CT, membrane from HEK293 cells)
# Conditions: human 5-HT5A receptor membrane; read-out: Kd value of [3H]5-CT determined from Scatchard analysis
# Method: The ORF (open reading frame; protein coding region) of a human 5-HT5A receptor (Genbank AF498985) was cloned from a human hippocampus cDNA library, and then inserted into a pCR2.1 vector (Invitrogen), and Escherichia coli containing the plasmid was cultured in a large amount. Next, the full-length cDNA sequence of the human 5-HT5A receptor was analyzed, and recombined into a pCDNA3.1 vector (Invitrogen) as an expression vector and cultured in a large amount. HEK293 established cells (ATCC) derived from the human fetal kidney were seeded, the expression plasmid (1 μg) obtained above were added thereto with LIPOFECTAMINE 2000 (Invitrogen; 2 μl), the gene was transfected into HEK293 cells, and the expression cells were screened with a drug-resistant marker, Geneticin (G418 sulfate 500 μg/ml; Kanto Chemical Co., Inc.). Thus prepared recombinant cells which expressed the gene were cultured in a medium containing D-MEM (Dulbecco's modified eagle medium, Sigma), 10% FCS (Fetal calf serum: fetal bovine serum), 1% Pc./Sm (Penicillin/Streptomycin, Invitrogen), and 500 μg/ml G418 for 3 days. These experimental operations followed a manual for gene operation experiment and an instruction appended in a reagent, and the like, such as a known method (Sambrook, J. et al, Molecular Cloning—A Laboratory Manual”, Cold Spring Harbor laboratory, NY, 1989).
# HEK293 cells for forced expressions of a human 5-HT5A receptor were cultured in a F500 plate, and scraped with a scraper. After centrifugation, the precipitate was collected, and an incubation buffer (50 mM Tris (HCl) (pH 7.4), 10 mM MgSO4, and 0.5 mM EDTA (ethylenediamine tetraacetic acid)) was added thereto. After homogenization, it was further centrifuged, and the incubation buffer was added to the precipitate, followed by thoroughly suspending. The operation was repeated, and protein concentration was measured, thereby completing preparation of the membrane.
# A solution of the compound to be tested and 100 μM 5-CT (5-carboxamidetriptamine) in DMSO was added to a 96-well plate at 2 μl/well, suspended in an incubation buffer, and a membrane from HEK293 cells for forced expressions of a human 5-HT5A receptor prepared at 200 μg/ml was added at 100 μl/well. After incubation at room temperature for 15 minutes, a [^3H]5-CT solution (2 nM [^3H]5-CT, incubation buffer) was added thereto at 100 μl/well.
# Separately, 100 μl of the solution was distributed into a liquid scintillation vial, and 2 ml of Aquasol II (registered trademark) was added thereto, followed by stirring. Then, radioactivity was measured by a liquid scintillation counter. It was incubated at 37° C. for 60 minutes. The reaction mixture was sucked into 96-well GF/C filter plate that had been pre-treated with 0.2% polyethyleneimine, and washed six times with an ice-cooled, 50 mM Tris (pH 7.5) buffer. The GF/C filter plate was dried.
# Microscint TMPS (registered trademark) was added thereto at 40 μl/well. Radioactivity remaining on the GF/C filter plate was measured by a top counter.
# The [^3H]5-CT binding inhibiting activity by the compound to be tested in each experiment was determined as an IC50 value with a radioactivity upon addition of DMSO alone being 0% inhibition, and a radioactivity upon addition of 1 μM 5-CT being 100% inhibition. Separately, Ki values were calculated from the Kd value of the [^3H]5-CT determined from Scatchard analysis, by the following equation.
# T1 sequence (P47898 whole entry): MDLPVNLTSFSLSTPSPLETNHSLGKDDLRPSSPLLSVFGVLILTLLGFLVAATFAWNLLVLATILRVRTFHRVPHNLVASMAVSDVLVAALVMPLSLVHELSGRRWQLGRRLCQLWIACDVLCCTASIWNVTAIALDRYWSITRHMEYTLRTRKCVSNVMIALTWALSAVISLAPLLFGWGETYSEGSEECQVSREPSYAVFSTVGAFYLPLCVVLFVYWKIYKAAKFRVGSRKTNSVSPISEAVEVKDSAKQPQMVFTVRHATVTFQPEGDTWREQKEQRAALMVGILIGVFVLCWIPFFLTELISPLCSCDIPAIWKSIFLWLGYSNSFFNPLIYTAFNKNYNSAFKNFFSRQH
row,SMILES,Kd [nM]
1,"NCCc1c[nH]c2ccc(C(N)=O)cc12 [[^3H]5-CT, 5-carboxamidetriptamine, reference compound]",4.95

# Same assay, conditions: membrane from HEK293 cells expressing human 5-HT5A receptor; Ki calculated from IC50 and Kd of [3H]5-CT
row,SMILES,Ki [nM]
1,CS(=O)(=O)c1ccc2ccc(C(=O)N=C(N)N)cc2c1-c1c(F)cc(F)cc1F [Example 13],30 to 300
2,N#Cc1cc(F)c(-c2ccncc2)c2cc(C(=O)N=C(N)N)ccc12 [Example 19],30 to 300
3,N#Cc1ccc2ccc(C(=O)N=C(N)N)cc2c1-c1c(F)cncc1F [Example 18],1 to 30
4,CSc1ccc2ccc(C(=O)N=C(N)N)cc2c1-c1c(F)cc(F)cc1F [Example 12],1 to 30
5,N#Cc1ccc2ccc(C(=O)N=C(N)N)cc2c1C1CC1 [Example 21],30 to 300
6,N#Cc1ccc2ccc(C(=O)N=C(N)N)cc2c1C1=CCOCC1 [Example 16],30 to 300
7,N#Cc1ccc2ccc(C(=O)N=C(N)N)cc2c1-c1c(F)cc(CO)cc1F [Example 17],30 to 300
8,N#Cc1cc(F)c(-c2c(F)cc(F)cc2F)c2cc(C(=O)N=C(N)N)ccc12 [Example 5],1 to 30
9,"N#Cc1ccc2ccc(C(=O)N=C(N)N)cc2c1-c1c(F)cccc1Cl [Example 1, 8-(2-chloro-6-fluorophenyl)-7-cyano-N-(diaminomethylene)-2-naphthamide hydrochloride]",4.3

# Continued, values first:
row,Ki [nM],SMILES
1,1 to 30,N#Cc1ccc2ccc(C(=O)N=C(N)N)cc2c1-c1ccc(F)cc1 [Example 14]
2,1 to 30,COc1cccc(F)c1-c1c(C#N)ccc2ccc(C(=O)N=C(N)N)cc12 [Example 8]
3,30 to 300,N#Cc1ccc2ccc(C(=O)N=C(N)N)cc2c1-c1ccncc1F [Example 4]
4,30 to 300,N#Cc1ccc2ccc(C(=O)N=C(N)N)cc2c1-c1ccncc1Cl [Example 3]
5,1 to 30,N#Cc1ccc2ccc(C(=O)N=C(N)N)cc2c1-c1c(F)cc(F)cc1F [Example 2]
6,1 to 30,N#Cc1ccc2ccc(C(=O)N=C(N)N)cc2c1-c1c(F)cccc1F [Example 7]
7,1 to 30,N#Cc1ccc2ccc(C(=O)N=C(N)N)cc2c1-c1ccccc1F [Example 10]
8,30 to 300,COc1cc(C#N)ccc1-c1c(C#N)ccc2ccc(C(=O)N=C(N)N)cc12 [Example 15]
9,1 to 30,N#Cc1ccc2ccc(C(=O)N=C(N)N)cc2c1-c1ccc(F)cc1F [Example 6]
10,1 to 30,N#Cc1ccc2ccc(C(=O)N=C(N)N)cc2c1-c1ccccc1 [Example 20]
11,1 to 30,N#Cc1ccc2ccc(C(=O)N=C(N)N)cc2c1-c1ccccc1Cl [Example 9]

# Test system: hyperactivity caused by MK-801
# Experiment: Improvement effect on increase in motion induced by methamphetamine or MK-801 in mice
# Type: in vivo
# Conditions: male ICR mouse; oral dose 0.03 mg/kg; MK-801 0.3 mg/kg i.p.; motion measured 60 minutes; significance P<0.05
# Method: The improvement effect of compound of formula (I) was evaluated by measuring the quantity of motion by IR irradiation when a compound was administered to a mouse in which hyperactivity was caused by methamphetamine (hereinafter, simply referred to as “MAP”) or MK-801, known as an animal model of schizophrenia.
# An animal was taken out of a breeding cage, orally administered with a compound to be tested, and then placed into a cage for breeding. After 30 minutes, the animal was put into a cage for measurement, and the motion with the compound to be tested alone was measured. Further, after 30 to 90 minutes, the animal was taken out, and intraperitoneally administered with a drug for increasing the motion (MAP; 1 mg/kg or MK-801; 0.3 mg/kg, dissolved in a physiological saline, respectively). Then, the motion for a certain period of time (60 minutes) was measured by using a motion measurement device (CompACT AMS from Muromachi Kikai Co., Ltd.) by means of an infrared sensor.
# For a normal mouse (a mouse administered with physiological saline) and a mouse administered with a drug for increasing the motion, a Student's T test was performed for evaluation for each interval. For a group administered with the compound to be tested, an assay was performed using a solvent (vehicle) group and a Dunnett's T test. […]
row,SMILES,inhibition of hyperactivity (motion) caused by MK-801
1,"N#Cc1ccc2ccc(C(=O)N=C(N)N)cc2c1-c1c(F)cccc1Cl [Example 1, 8-(2-chloro-6-fluorophenyl)-7-cyano-N-(diaminomethylene)-2-naphthamide hydrochloride]",significantly inhibited
